Experimental data as given in paper PMC7180572, “5-Alkylamino-N-phenylpyrazine-2-carboxamides: Design, Preparation, and Antimycobacterial Evaluation” (Molecules, 2020).
In brackets after ≈: the same amount, converted by molar mass. Read-outs that look alike come from different tables or passages of the source.

Experiments:
[1] = tested on: Pseudomonas aeruginosa ATCC 27853, CCM 3955; test: Antibacterial microdilution broth method (EUCAST); assay type: cell-based; details: read-out: MIC PA
[2] = tested on: Trichophyton interdigitale ATCC 9533, CCM 8377; test: Antifungal microdilution broth method (EUCAST); assay type: cell-based; details: read-out: MIC TI
[3] = tested on: Staphylococcus epidermidis ATCC 12228, CCM 4418; test: Antibacterial microdilution broth method (EUCAST); assay type: cell-based; details: read-out: MIC SE
[4] = tested on: Mycobacterium tuberculosis H37Ra ITM-M006710 (ATCC 9431); test: Microdilution broth, modified Microplate Alamar Blue Assay, whole cell growth inhibition; assay type: cell-based; details: in vitro, Middlebrook 7H9 broth, resazurin; for MIC: Mycobacterium tuberculosis, read-out: MIC Mtb H37Ra
[5] = tested on: Mycobacterium aurum DSM 43999 (ATCC 23366); test: as above; assay type: cell-based; details: for MIC: Mycolicibacterium aurum, read-out: MIC Mycobacterium aurum
[6] = tested on: Candida tropicalis ATCC 750, CCM 8264; test: Antifungal microdilution broth method (EUCAST); assay type: cell-based; details: read-out: MIC CT
[7] = tested on: Candida krusei ATCC 6258, CCM 8271; test: Antifungal microdilution broth method (EUCAST); assay type: cell-based; details: Pichia kudriavzevii, read-out: MIC CK
HepG2 cells = test: HepG2 cytotoxicity, CellTiter 96 (MTS) assay; assay type: cell-based, human; details: for IC50: read-out: HepG2 IC50; for SI, selectivity index: IC50 (HepG2)/MIC against Mtb H37Ra (in µM)
[8] = tested on: Staphylococcus aureus methicillin resistant ATCC 43300, CCM 4750; test: microbe, parasite or virus in culture; assay type: cell-based; details: ATCC 43300 / CCM 4750 / MRSA, read-out: MIC MRSA
[9] = tested on: Escherichia coli ATCC 25922, CCM 3954; test: Antibacterial microdilution broth method (EUCAST); assay type: cell-based; details: read-out: MIC EC
[10] = tested on: Acinetobacter baumanii ATCC 19606, DSM 30007; test: Antibacterial microdilution broth method (EUCAST); assay type: cell-based; details: Acinetobacter baumannii
[11] = tested on: Candida parapsilosis ATCC 22019, CCM 8260; test: Antifungal microdilution broth method (EUCAST); assay type: cell-based; details: Lodderomyces parapsilosis, read-out: MIC CP
[12] = tested on: Mycobacterium smegmatis DSM 43465 (ATCC 607); test: Microdilution broth, modified Microplate Alamar Blue Assay, whole cell growth inhibition; assay type: cell-based; details: for MIC: Mycolicibacterium smegmatis, read-out: MIC Mycobacterium smegmatis
[13] = tested on: Aspergillus fumigatus ATCC 204305; test: Antifungal microdilution broth method (EUCAST); assay type: cell-based; details: read-out: MIC AF
[14] = tested on: Aspergillus flavus CCM 8363; test: Antifungal microdilution broth method (EUCAST); assay type: cell-based; details: read-out: MIC AFla
[15] = tested on: Staphylococcus aureus spp.aureus ATCC 29213, CCM 4223; test: Antibacterial microdilution broth method (EUCAST); assay type: cell-based; details: read-out: MIC SA
[16] = tested on: Absidia corymbifera CCM 8077 (Lichtheimia corymbifera); test: Antifungal microdilution broth method (EUCAST); assay type: cell-based; details: read-out: MIC AC
[17] = tested on: Enterococcus faecalis ATCC 29212, CCM 4224; test: Antibacterial microdilution broth method (EUCAST); assay type: cell-based; details: read-out: MIC EF
[18] = tested on: Klebsiella pneumoniae ATCC 10031, CCM 4415; test: Antibacterial microdilution broth method (EUCAST)
[19] = tested on: Candida albicans ATCC 24433, CCM 8320; test: Antifungal microdilution broth method (EUCAST); assay type: cell-based; details: read-out: MIC CA
[20] = in vitro, Middlebrook 7H9 broth, resazurin
[21] = Homo sapiens, HepG2, 24 h incubation, > means higher concentration not reproducible due to precipitation

| Compound | MIC ([1]; 72 h) [µM] | MIC ([1]; 120 h) [µM] | MIC ([2]; 72 h) [µM] | MIC ([2]; 120 h) [µM] | MIC ([3]; 24 h) [µM] | MIC ([3]; 48 h) [µM] | MIC [4] [µg/mL] | MIC [5] [µg/mL] | MIC ([6]; 24 h) [µM] | MIC ([6]; 48 h) [µM] | melting point [°C] | MIC ([7]; 24 h) [µM] | MIC ([7]; 48 h) [µM] | IC50 (HepG2 cells; Homo sapiens, HepG2, 24 h) [µM] | MIC ([8]; 24 h) [µM] | MIC ([8]; 48 h) [µM] | MIC ([9]; 24 h) [µM] | MIC ([9]; 48 h) [µM] | MIC [5, 20] [µg/mL] | MIC [12, 20] [µg/mL] | also measured |
| --- | --- | --- | --- | --- | --- | --- | --- | --- | --- | --- | --- | --- | --- | --- | --- | --- | --- | --- | --- | --- | --- |
| CCCCCNc1cnc(C(=O)Nc2ccc(C)cc2)cn1 [Compound 4c, 5-(Pentylamino)-N-(p-tolyl)pyrazine-2-carboxamide] | > 500 | > 500 | > 125 | > 125 | > 500 | > 500 | ≥ 500 | ≥ 500 | > 125 | > 125 | 155.9 to 156.6 | > 125 | > 125 | > 25 | > 500 | > 500 | > 500 | > 500 |  |  | MIC ([10]; 24h): > 500 µM; MIC ([10]; 48h): > 500 µM; MIC ([11]; 24 h): > 125 µM; MIC ([11]; 48 h): > 125 µM; MIC [12]: ≥ 500 µg/mL; MIC ([13]; ATCC204305, 24 h): > 125 µM; MIC ([13]; ATCC204305, 48 h): > 125 µM; MIC ([14]; CCM8363, 24 h): > 125 µM; MIC ([14]; CCM8363, 48 h): > 125 µM; MIC ([15]; 24 h): > 500 µM; MIC ([15]; 48 h): > 500 µM; MIC ([16]; CCM8077, 24 h): > 125 µM; MIC ([16]; CCM8077, 48 h): > 125 µM; MIC ([17]; 24 h): > 500 µM; MIC ([17]; 48 h): > 500 µM; MIC KP ([18]; 24h): > 500 µM; MIC KP ([18]; 48h): > 500 µM; MIC ([19]; 24 h): > 125 µM; MIC ([19]; 48 h): > 125 µM |
| CCCNc1cnc(C(=O)Nc2ccc(O)cc2)cn1 [Compound 3a, N-(4-hydroxyphenyl)-5-(propylamino)pyrazine-2-carboxamide] | > 500 | > 500 | > 500 | > 500 | > 500 | > 500 | 15.6 (≈ 57.4 µM) | ≥ 500 | > 500 | > 500 | 209.3 to 215.6 | > 500 | > 500 | 410 | > 500 | > 500 | > 500 | > 500 |  |  | SI, selectivity index (HepG2 cells): 7.18; MIC ([10]; 24h): > 500 µM; MIC ([10]; 48h): > 500 µM; MIC ([11]; 24 h): > 500 µM; MIC ([11]; 48 h): > 500 µM; MIC [12]: ≥ 500 µg/mL; MIC ([13]; ATCC204305, 24 h): > 500 µM; MIC ([13]; ATCC204305, 48 h): > 500 µM; MIC ([14]; CCM8363, 24 h): > 500 µM; MIC ([14]; CCM8363, 48 h): > 500 µM; MIC ([15]; 24 h): > 500 µM; MIC ([15]; 48 h): > 500 µM; MIC ([16]; CCM8077, 24 h): > 500 µM; MIC ([16]; CCM8077, 48 h): > 500 µM; MIC ([17]; 24 h): > 500 µM; MIC ([17]; 48 h): > 500 µM; MIC KP ([18]; 24h): > 500 µM; MIC KP ([18]; 48h): > 500 µM; MIC ([19]; 24 h): > 500 µM; MIC ([19]; 48 h): > 500 µM |
| CO[C@H]1/C=C/O[C@@]2(C)Oc3c(C)c(O)c4c(O)c(c(/C=N/N5CCN(C)CC5)c(O)c4c3C2=O)NC(=O)/C(C)=C\C=C\[C@H](C)[C@H](O)[C@@H](C)[C@@H](O)[C@@H](C)[C@H](OC(C)=O)[C@@H]1C [RIF, rifampicin, reference compound] |  |  |  |  |  |  | 0.0039 to 0.0078 (≈ 0.00474 to 0.00948 µM) |  |  |  |  |  |  |  |  |  |  |  | 0.39 to 0.78 (≈ 0.474 to 0.948 µM) | 6.25 to 12.5 (≈ 7.59 to 15.2 µM) |  |
| O=C(Nc1cccc(O)c1)c1cnc(Cl)cn1 [Compound 2, 5-Chloro-N-(3-hydroxyphenyl)pyrazine-2-carboxamide] |  |  |  |  |  |  | 31.2 (≈ 125 µM) |  |  |  |  |  |  |  |  |  |  |  | ≥ 500 | ≥ 500 | IC50 (HepG2 cells; [21]): > 500 µM; SI, selectivity index (HepG2 cells): >3.99 |
| 5-Chloro-N-(5-chloro-2-hydroxyphenyl)pyrazine-2-carboxamide [Compound 6] |  |  |  |  |  |  |  |  |  |  |  |  |  |  |  |  |  |  |  |  | MIC Mtb H37Ra [4]: ≥500 µg/mL; MIC Mycobacterium aurum [5, 20]: ≥500 µg/mL; IC50 (HepG2 cells; 24 h incubation, > means higher concentration not reproducible due to precipitation): > 250 µM; MIC Mycobacterium smegmatis [12, 20]: ≥500 µg/mL |
| CCCCNc1cnc(C(=O)Nc2ccc(Cl)cc2O)cn1 [Compound 6b, 5-(Butylamino)pyrazine-N-(4-chloro-2-hydroxyphenyl)-2-carboxamide] |  |  |  |  |  |  | ≥ 500 |  |  |  | 221.8 to 225.4 |  |  |  |  |  |  |  | ≥ 500 | 3.91 (≈ 12.2 µM) | IC50 (HepG2 cells; [21]): > 50 µM |
